According to patent publication US6576635B2, “Compositions comprising trimetrexate” (MedImmune Oncology, Inc., priority 1999, dated 2003):

Columns and labels:
[1] = in 1:1 methanol/water; cited from earlier work
[2] = system: murine cell lines such as L1210, L5178Y, S-180, W-256; conditions: cited from earlier work
[3] = system: murine tumors such as B16 melanoma, colon 26 and 38, L1210 and P388 leukemia and CD8F mammary tumors; conditions: cited from earlier work
[4] = system: human tumor cells lines derived from breast, colon, lung, ovary, renal and melanoma cells; conditions: cited from earlier work
P450 enzyme system = conditions: cited from earlier work
[5] = exposed to oxygen at room temperature; cited from earlier work
[6] = cited from earlier work
[7] = Relative thermal stability of reconstituted dosage forms; format: physicochemical; set-up: key to Appearance: S = satisfactory (pale green-yellow solution); U = unsatisfactory (discolored solution); conditions: 25 ° C.
Method: One bulk solution of each dosage form was prepared by combining its vials, held at 25 ° C. and 60% relative humidity in closed containers and tested over time for trimetrexate decomposition and observed for physical appearance. Both dosage forms were tested according to the method in Example 2, except the amount of ascorbic acid equivalent to that in the dosage form was added to the trimetrexate standards being used to evaluate the ascorbate formulation to give equivalent response factors.

[8] = Relative thermal stability of solid dosage forms; format: physicochemical; set-up: key to Appearance: S = satisfactory (pale green-yellow solid); conditions: 40° C.
Method: Both dosage forms were tested according to the method in Example 2, except the amount of ascorbic acid equivalent to that in the dosage form was added to the trimetrexate HPLC standards being used to evaluate the ascorbate formulation to give equivalent response factors.

[9] = Relative light stability of dosage forms; format: physicochemical
Excerpt: (§1) Dosage forms of trimetrexate glucuronate and trimetrexate ascorbate were dispersed in thin films on watch glasses and exposed to illumination in an air atmosphere over time. The overall illumination was approximately 0.28 million lux hours per day and the integrated near ultraviolet energy was approximately 210 watt hours per square meter per day. Therefore at day 9 the dosage forms had received approximately 2.5 million lux hours of illumination and approximately 1900 watt hours per square meter of integrated near ultraviolet energy. The dosage forms were tested over time for trimetrexate decomposition and observed for physical appearance. Both dosage forms were tested according to the method in Example 2, except the amount of ascorbic acid equivalent to that in the dosage form was added to the trimetrexate HPLC standards being used to evaluate the ascorbate formulation to give equivalent response factors.
(§2) In Table 9, the total quantity of trimetrexate free base is expressed as percent of the initial amount of trimetrexate, and the total amount of impurities is expressed as the sum of the weight percent of the aldehyde degradant and area percent of all other impurities. The oxidative degradation pathway of trimetrexate generates the aldehyde degradant. Its response factor has been determined to be 0.62 relative to that of trimetrexate. Therefore the weight percent of the aldehyde degradant is obtained by dividing the area percent value by the response factor of 0.62.

[10] = Relative light stability of dosage forms; format: physicochemical; set-up: key: S = satisfactory (pale green-yellow solid)
Excerpt: as §1, §2

[11] = Relative light stability of dosage forms; format: physicochemical; set-up: key: S = satisfactory (pale green-yellow solid); U = unsatisfactory (discolored solid)
Excerpt: as §1, §2

[12] = day 0, reconstituted ~12.5 mg/ml, 60% RH
[13] = day 0, reconstituted ~12.5 mg/ml, 60% RH, HPLC area
[14] = day 0, reconstituted ~12.5 mg/ml, 60% relative humidity
[15] = day 0 of illumination, weight percent aldehyde + area percent other impurities
[16] = day 0, thin film, illumination ~0.28 million lux hours per day, air
[17] = day 9 of illumination (~2.5 million lux hours)

## COc1cc(NCc2ccc3nc(N)nc(N)c3c2C)cc(OC)c1OC [trimetrexate free base, 2,4-diamino-5-methyl-6-[(3,4,5-trimethoxyanilino)methyl]quinazoline]
[1]
  pKa: 8.0
[2]
  in vitro antitumor activity: in vitro antitumor activity
[3]
  in vivo utility against murine tumors: in vivo utility
[4]
  in vitro activity against human tumor cell lines: in vitro activity
P450 enzyme system
  metabolism: metabolized by a P450 enzyme system
[5]
  decomposition: decomposes over time
[6]
  water solubility: < 100 µg/mL

## COc1cc(NCc2ccc3nc(N)nc(N)c3c2C)cc(OC)c1OC.O=C1O[C@H]([C@@H](O)CO)C(O)=C1O [Trimetrexate Ascorbate]
[7]; [12]
  % Label Claim: 99.0%
[7]; [13]
  % Total Imp.: 0.1%
[7]; [14]
  Appearance: S
[7]; day 1, reconstituted, 60% RH
  % Label Claim: 98.5%
  % Total Imp.: 0.1%
  Appearance: S
[7]; day 2, reconstituted, 60% RH
  % Label Claim: 98.4%
  % Total Imp.: 0.1%
  Appearance: S
[7]; day 3, reconstituted, 60% RH
  % Label Claim: 98.8%
  % Total Imp.: 0.2%
  Appearance: S
[7]; day 4, reconstituted, 60% RH
  % Label Claim: 101.0%
  % Total Imp.: 0.4%
  Appearance: S
[7]; day 5, reconstituted, 60% RH
  % Label Claim: 98.2%
  % Total Imp.: 0.3%
  Appearance: S
[7]; day 6, reconstituted, 60% RH
  % Label Claim: 96.5%
  % Total Imp.: 0.4%
  Appearance: S
[7]; day 7, reconstituted, 60% RH
  % Label Claim: 98.7%
  % Total Imp.: 0.6%
  Appearance: S
[8]; 1 month, 75% RH
  % Label Claim: 100.0%
[8]; 1 month, 75% RH, HPLC area
  % Total Imp.: <0.1%
[8]; 1 month, 75% relative humidity
  Appearance: S
[8]; 2 months, 75% RH
  % Label Claim: 99.6%
  % Total Imp.: <0.1%
  Appearance: S
[8]; 3 months, 75% RH
  % Label Claim: 98.9%
  % Total Imp.: <0.1%
  Appearance: S
[9]; day 0 of illumination
  % Aldehyde Degredant (w/w): 0.1%
  % TMX of Initial: 100.0%
[9]; [15]
  % Total Imp.: 0.1%
[9]; day 2 of illumination
  % Aldehyde Degredant (w/w): 0.1%
  % TMX of Initial: 98.3%
  % Total Imp.: 0.4%
[9]; day 4 of illumination
  % Aldehyde Degredant (w/w): 0.1%
  % TMX of Initial: 97.7%
  % Total Imp.: 0.6%
[9]; day 6 of illumination
  % Aldehyde Degredant (w/w): 0.1%
  % TMX of Initial: 97.1%
  % Total Imp.: 1.0%
[9]; day 9 of illumination
  % Aldehyde Degredant (w/w): 0.2%
  % TMX of Initial: 96.1%
  % Total Imp.: 1.4%
[10]; [16]
  Appearance: S
[10]; day 2 of illumination
  Appearance: S
[10]; day 4 of illumination
  Appearance: S
[10]; day 6 of illumination
  Appearance: S
[10]; [17]
  Appearance: S

## COc1cc(NCc2ccc3nc(N)nc(N)c3c2C)cc(OC)c1OC.O=C(O)[C@H]1O[C@H](O)[C@H](O)[C@@H](O)[C@@H]1O [Trimetrexate Glucuronate]
[7]; [12]
  % Label Claim: 95.9%
[7]; [13]
  % Total Imp.: 0.2%
[7]; [14]
  Appearance: S
[7]; day 1, reconstituted, 60% RH
  % Label Claim: 98.6%
  % Total Imp.: 0.2%
  Appearance: S
[7]; day 2, reconstituted, 60% RH
  % Label Claim: 96.8%
  % Total Imp.: 0.4%
  Appearance: S
[7]; day 3, reconstituted, 60% RH
  % Label Claim: 97.1%
  % Total Imp.: 0.5%
  Appearance: U
[7]; day 4, reconstituted, 60% RH
  % Label Claim: 96.1%
  % Total Imp.: 0.8%
  Appearance: U
[7]; day 5, reconstituted, 60% RH
  % Label Claim: 96.5%
  % Total Imp.: 1.1%
  Appearance: U
[7]; day 6, reconstituted, 60% RH
  % Label Claim: 95.0%
  % Total Imp.: 1.5%
  Appearance: U
[7]; day 7, reconstituted, 60% RH
  % Label Claim: 92.1%
  % Total Imp.: 1.9%
  Appearance: U
[8]; 1 month, 75% RH
  % Label Claim: 99.6%
[8]; 1 month, 75% RH, HPLC area
  % Total Imp.: 0.1%
[8]; 1 month, 75% relative humidity
  Appearance: S
[8]; 2 months, 75% RH
  % Label Claim: 100.7%
  % Total Imp.: 0.2%
  Appearance: S
[8]; 3 months, 75% RH
  % Label Claim: 98.0%
  % Total Imp.: 0.3%
  Appearance: S
[9]; day 0 of illumination
  % Aldehyde Degredant (w/w): 0.3%
  % TMX of Initial: 100.0%
[9]; [15]
  % Total Imp.: 0.9%
[9]; day 2 of illumination
  % Aldehyde Degredant (w/w): 2.0%
  % TMX of Initial: 94.4%
  % Total Imp.: 3.1%
[9]; day 4 of illumination
  % Aldehyde Degredant (w/w): 3.8%
  % TMX of Initial: 92.4%
  % Total Imp.: 5.6%
[9]; day 6 of illumination
  % Aldehyde Degredant (w/w): 5.6%
  % TMX of Initial: 87.9%
  % Total Imp.: 8.1%
[9]; day 9 of illumination
  % Aldehyde Degredant (w/w): 8.2%
  % TMX of Initial: 83.6%
  % Total Imp.: 11.8%
[10]; [16]
  Appearance: S
[11]; day 2 of illumination
  Appearance: U
[11]; day 4 of illumination
  Appearance: U
[11]; day 6 of illumination
  Appearance: U
[11]; [17]
  Appearance: U
